From patent US9447028B2, “Therapeutic aryl-amido-aryl compounds and their use” (King's College London, priority 2009, dated 2016)

Assays:
[1] = tested on: disintegrin-metalloproteinases 10 (ADAM10); test: ADAM10 expression in cultured cortical neurons; assay type: cell-based, mouse; design: dose or concentration left out as unconfirmed; settings: Agonist; analysed 3 days later (Table 5, introduced as ADAM10 data)
Procedure: (§1) Neuronal cultures were prepared from embryonic E19 mouse embryos. Fetal brain cortices were dissected and freed from meninges. […] Cortical cells (1×10^5) were plated onto poly-L-lysine (10 μg/mL) coated glass coverslips in 24-well tissue culture plates. They were cultured in Neurobasal medium containing B27 supplement, 2 mM glutamine, 20 μg/mL penicillin stepromycin, and 0.25% glucose. They were maintained for 7 days before been treated. For each treatment, 3 coverslips were used and the experiment was repeated 3 times.
(§2) After 3 days of culture, media was removed and Hoechst 33342 (10 μM) and propidium iodide (10 μM) in PBS was added to the wells for 15 minutes. Only neurons positive for Hoechst 33342 but negative for propidium iodide were counted as surviving neurons. […] The antibodies used were α chAT (1:200, Chemicon™), α APP (1:100, Chemicon™) and α ADAM10 (1:200, Chemicon™). Secondary antibody used was anti-rabbit Cy3 or Cy5 conjugated (Jackson™, used at 1:1000). The nuclear marker DAPI (1 μg/mL) was used to stain all cells. […]

Aβ40 = Aβ40 level in cortex of Tg2576 mice after oral agonist (sandwich ELISA); assay type: in vivo; settings: chow with 1 mg/kg agonist for 3 months, six months of age; control = 100
Procedure: (§3) Twenty seven 3 month old Tg2576 mice (Taconic™) were split into 3 groups of 9. One group was fed normal chow, the other groups were fed with 1 mg/Kg RARα agonist, either AM580 or BMS194753. Animals were analysed at 6 and 9 months of age.
(§4) Animals were perfused with PBS. The brain was dissected and one hemisegment was fixed in 4% PFA overnight, 20% sucrose for 3 days, embedded in OCT compound and stored frozen. The cortex was removed form the other hemisegment and the protein extracted.
(§5) To measure Aβ40 and Aβ42 levels, a sandwich ELISA assay kit (Biosource™) was used according to the manufactures instructions. A 1:5000 of the guanidine-soluble extracts were made with TBS containing 5% BSA and 1×protease inhibitor (Calbiochem™) and centrifuged at 16000×g for 20 minutes at 4° C. Samples were diluted 1:10000 in sample diluent provided by the manufacturer.
(§6) These are Tg2576 mice, which over-express the Swedish mutation of APP. These mice overproduce Aβ40 and Aβ42. Three month old mice were fed for 3 months with normal chow or chow supplemented with 1 mg/kg of agonist. At six months of age, there is a dramatic decrease in both Aβ40 and Aβ42 levels in the mice fed with the RARα agonist, as compared to the normal fed mice.

[2] = tested on: amyloid precursor protein (APP); test: APP expression in cultured cortical neurons; assay type: cell-based, mouse; design: dose or concentration left out as unconfirmed; settings: Agonist; analysed 3 days later (Table 4)
Procedure: as §1, §2

Aβ42 = Aβ42 level in cortex of Tg2576 mice after oral agonist (sandwich ELISA); assay type: in vivo; settings: chow with 1 mg/kg agonist for 3 months, six months of age; control = 100
Procedure: as §3, §4, §5, §6

cortical neurons = test: Survival of cortical neurons in the presence of 10 μM Aβ42; assay type: cell-based, mouse; settings: for % Surviving Neurons: 10 μM Aβ42, 3 days; for Neuronal survival in the presence of Aβ42 (in words): 10 μM Aβ42, 0.01-1 μM agonist, compared to control cultures treated only with Aβ42
Procedure: as §1
After 3 days of culture, media was removed and Hoechst 33342 (10 μM) and propidium iodide (10 μM) in PBS was added to the wells for 15 minutes. Only neurons positive for Hoechst 33342 but negative for propidium iodide were counted as surviving neurons. In addition, cortical cultures were treated with agonist alone (0.1 μM) and assayed for chAT, APP, and ADAM10. The antibodies used were α chAT (1:200, Chemicon™), α APP (1:100, Chemicon™) and α ADAM10 (1:200, Chemicon™). Secondary antibody used was anti-rabbit Cy3 or Cy5 conjugated (Jackson™, used at 1:1000). The nuclear marker DAPI (1 μg/mL) was used to stain all cells.
Cortical cultures were treated after 7 days with 10 μM Aβ42 and supplemented with 0.01-1 μM of agonist. After 3 days, the number of surviving cells was determined. […] As atRA is a weak pan-agonist of all the RARs, it was decided to identify the specific receptor involved in this process using RAR specific agonists.

[3] = tested on: choline acetyltransferase (chAT); test: chAT expression in cultured cortical neurons; assay type: cell-based, mouse; design: dose or concentration left out as unconfirmed; settings: Agonist; analysed 3 days later
Procedure: as §1, §2

RARγ = target: T1, RARγ (Homo sapiens, UniProt P13631); test: Transactivation assay for RAR gamma (gal4-RAR fusion, luciferase reporter, COS-7 cells); assay type: cell-based; settings: ratio of test compound EC50 to that of atRA; inactive = no agonist action at the highest concentration tested
T1 construct: gal4 (fusion partner); expressed in transfected cells; host or cells: COS-7
T1 sequence (P13631 185-419 limits assumed): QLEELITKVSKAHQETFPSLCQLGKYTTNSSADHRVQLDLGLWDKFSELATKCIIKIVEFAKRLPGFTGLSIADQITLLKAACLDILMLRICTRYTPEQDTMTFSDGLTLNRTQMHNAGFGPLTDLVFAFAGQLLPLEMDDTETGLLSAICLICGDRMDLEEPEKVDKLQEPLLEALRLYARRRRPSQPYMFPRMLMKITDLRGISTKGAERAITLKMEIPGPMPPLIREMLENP
Outline: (§7)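 COS-7 cells co-transfected with gal4–RAR ligand-binding-domain fusion and pFR-luc reporter, then treated with compound in phenol-red-free DMEM (1% DMSO) for about one day. Luciferase read after lysis with BrightGlo; EC50 values from replicate experiments given as a ratio of means.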

RARα = target: T2, RARα (Homo sapiens, UniProt P10276); test: Transactivation assay for RAR alpha (gal4-RAR fusion, luciferase reporter, COS-7 cells); assay type: cell-based
T2 construct: gal4 (fusion partner); expressed in transfected cells; host or cells: COS-7
T2 sequence (P10276 183-417 limits assumed): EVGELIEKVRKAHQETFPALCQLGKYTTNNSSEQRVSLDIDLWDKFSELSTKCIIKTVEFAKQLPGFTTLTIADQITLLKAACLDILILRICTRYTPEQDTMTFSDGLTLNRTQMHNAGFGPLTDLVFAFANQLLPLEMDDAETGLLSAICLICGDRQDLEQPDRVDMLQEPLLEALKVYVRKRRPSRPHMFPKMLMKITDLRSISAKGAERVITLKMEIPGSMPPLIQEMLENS
Outline: as §7

RARβ = target: T3, RARβ (Homo sapiens, UniProt P10826); test: Transactivation assay for RAR beta (gal4-RAR fusion, luciferase reporter, COS-7 cells); assay type: cell-based; settings: ratio of test compound EC50 to that of atRA; inactive = no agonist action at the highest concentration tested
T3 construct: gal4 (fusion partner); expressed in transfected cells; host or cells: COS-7
T3 sequence (P10826 183-417 limits assumed): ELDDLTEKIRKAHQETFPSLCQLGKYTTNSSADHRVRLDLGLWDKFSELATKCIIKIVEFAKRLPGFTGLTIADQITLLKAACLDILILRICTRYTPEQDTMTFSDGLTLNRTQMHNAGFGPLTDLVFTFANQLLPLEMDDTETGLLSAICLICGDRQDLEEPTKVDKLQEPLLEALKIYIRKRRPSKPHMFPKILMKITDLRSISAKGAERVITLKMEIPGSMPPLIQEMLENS
Outline: as §7

Row | SMILES | Number of APP Neurons [1] | % of Aβ40 (Aβ40) | Number of APP Neurons [2] | % of Aβ42 (Aβ42) | % Surviving Neurons (cortical neurons; 0.01 μM agonist) | % Surviving Neurons (cortical neurons; 0.1 μM agonist) | % Surviving Neurons (cortical neurons; 1.0 μM agonist) | Neuronal survival in the presence of Aβ42 (in words) (cortical neurons) | Number of chAT Neurons [3] | RARγ activity ratio (RARγ) | RARα/RARβ ratio (*) (RARα; fold-selectivity for RARα over RARβ) | RARα activity ratio (RARα; ratio of test compound EC50 to that of atRA on the same plate) | RARβ activity ratio (RARβ)
1 | CC1(C)CCC(C)(C)c2cc(C(=O)Nc3ccc(C(=O)O)cc3)ccc21 [AM 580] | 19 ± 3 | 4 ± 1% | 11 ± 2 | 8 ± 1% | 52 ± 7% | 70 ± 6% | 99 ± 9% | notably better |  |  |  |  | 
2 | CC1(C)C(=O)C(C)(C)c2cc(C(=O)Nc3ccc(C(=O)O)cc3)ccc21 [BMS 194753] | 20 ± 2 | 3 ± 0.5% | 10 ± 2 | 7 ± 1% | 57 ± 7% | 69 ± 3% | 88 ± 4% | notably better | 37 ± 3 |  |  |  | 
3 | O=C(O)c1ccc2cc(-c3ccc(O)c(C45CC6CC(CC(C6)C4)C5)c3)ccc2c1 [CD 437] | 2 ± 0.75 |  | 22 ± 3 |  | 53 ± 3% | 30 ± 11% | 26 ± 10% | notably worse | 2 ± 1 |  |  |  | 
4 | COc1ccc(-c2ccc3cc(C(=O)O)ccc3c2)cc1C1(C)CCCCC1 [CD 2019] | 1 ± 0.5 |  | 23 ± 2 |  | 52 ± 3% | 58 ± 5% | 60 ± 5% | notably worse | 8 ± 1 |  |  |  | 
5 | CC1=C(/C=C/C(C)=C/C=C/C(C)=C/C(=O)O)C(C)(C)CCC1 [atRA, all trans retinoic acid] | 11 ± 1.5 |  | 15 ± 2 |  | 53 ± 4% | 69 ± 4% | 82 ± 4% | increase in cell survival with increasing dose | 16 ± 2 | 1 | 1 | 1 | 1
